Assay results: US8053418B2, “Anti-penicillin resistant pneumococci agent and novel 16-membered macrolide derivative” (Microbial Chemistry Research Foundation, priority 2005, dated 2011)
Values after ≈ are worked out from the molar mass of the structure shown. Values joined by “and” are separate entries in the source; they are usually repeats but may differ in a detail not shown here. Equal entries are not always repeated. Where two headings read alike, the source gives them in different places.

How the values were obtained:
[1] = system: Streptococcus pneumoniae IMC B-0919 (PRSP); assay: Antimicrobial activity test (MIC), clinical isolate IMC B-0919; type: cell-based
Method: (§1) Using Streptococcus pneumoniae that include clinical isolates of PRSP, the antimicrobial activity of each of the prepared anti-PRSP agents was measured in accordance with the “determination method of minimum inhibitory concentration of drug against bacteria” of Japanese Society of Chemotherapy (for re-revised version, see Chemotherapy 29; 76, 1981).
(§2) 11 test strains of Streptococcus pneumoniae including IMC B-0919 are all clinical isolates, of which 2 strains, IMC B-0921 and IMC B-1229, are classified into penicillin susceptible Streptococcus pneumoniae (PSSP) and the remaining 9 strains are classified into penicillin-resistant Streptococcus pneumoniae (PRSP) (according to NCCLS standards).

[2] = system: Streptococcus pneumoniae IMC B-0920 (PRSP); assay: Antimicrobial activity test (MIC), clinical isolate IMC B-0920; type: cell-based
Method: as §1, §2

[3] = system: Streptococcus pneumoniae IMC B-0922 (PRSP); assay: Antimicrobial activity test (MIC), clinical isolate IMC B-0922; type: cell-based
Method: as §1, §2

[4] = system: Streptococcus pneumoniae IMC B-1231 (PRSP); assay: Antimicrobial activity test (MIC), clinical isolate IMC B-1231; type: cell-based
Method: as §1, §2

[5] = system: Streptococcus pneumoniae IMC B-1232 (PRSP); assay: Antimicrobial activity test (MIC), clinical isolate IMC B-1232; type: cell-based
Method: as §1, §2

[6] = system: Streptococcus pneumoniae IMC B-1233 (PRSP); assay: Antimicrobial activity test (MIC), clinical isolate IMC B-1233; type: cell-based
Method: as §1, §2

[7] = system: Streptococcus pneumoniae IMC B-1234 (PRSP); assay: Antimicrobial activity test (MIC), clinical isolate IMC B-1234; type: cell-based
Method: as §1, §2

[8] = system: Streptococcus pneumoniae IMC B-1235 (PRSP); assay: Antimicrobial activity test (MIC), clinical isolate IMC B-1235; type: cell-based
Method: as §1, §2

[9] = system: Streptococcus pneumoniae IMC B-1236 (PRSP); assay: Antimicrobial activity test (MIC), clinical isolate IMC B-1236; type: cell-based
Method: as §1, §2

[10] = system: Streptococcus pneumoniae IMC B-0921 (PSSP); assay: Antimicrobial activity test (MIC), clinical isolate IMC B-0921; type: cell-based
Method: as §1, §2

[11] = system: Streptococcus pneumoniae IMC B-1229 (PSSP); assay: Antimicrobial activity test (MIC), clinical isolate IMC B-1229; type: cell-based
Method: as §1, §2

[12] = system: penicillin-resistant Streptococcus pneumoniae (PRSP); assay: Anti-PRSP activity, overall statements on the clinical isolates; type: cell-based; conditions: statement in words
Method: as §1, §2
For the compounds of the present invention, MKT-1011, MKT-2003, MKT-3002 and MKT-3003, the antimicrobial activity was measured in the same way as in Experimental Example 1.

[13] = system: general Gram-positive bacteria and Gram-negative bacteria; conditions: Non-Patent Literatures 1 and 2, Patent Literature 1; cited from earlier work
[14] = PRSP clinical isolate IMC B-0919
[15] = Streptococcus pneumoniae IMC B-0919, PRSP
[16] = PRSP clinical isolate IMC B-0920
[17] = Streptococcus pneumoniae IMC B-0920, PRSP
[18] = PRSP clinical isolate IMC B-0922
[19] = Streptococcus pneumoniae IMC B-0922, PRSP
[20] = PRSP clinical isolate IMC B-1231
[21] = Streptococcus pneumoniae IMC B-1231, PRSP
[22] = PRSP clinical isolate IMC B-1232
[23] = PRSP clinical isolate IMC B-1233
[24] = PRSP clinical isolate IMC B-1234
[25] = Streptococcus pneumoniae IMC B-1234, PRSP
[26] = PRSP clinical isolate IMC B-1235
[27] = Streptococcus pneumoniae IMC B-1235, PRSP
[28] = PRSP clinical isolate IMC B-1236
[29] = Streptococcus pneumoniae IMC B-1236, PRSP
[30] = PSSP clinical isolate IMC B-0921
[31] = PSSP clinical isolate IMC B-1229

SMILES	MIC [1, 14] [µg/mL]	MIC [2, 16]	MIC [3, 18] [µg/mL]	MIC [4, 20] [µg/mL]	MIC [5, 22] [µg/mL]	MIC [6, 23] [µg/mL]	MIC [7, 24] [µg/mL]	MIC [8, 26]	MIC [9, 28]	MIC [10, 30] [µg/mL]	MIC [11, 31] [µg/mL]	anti-PRSP activity [12]	other results
CCC1OC(=O)CCC(C)C(OC2OC(C)CC(N(C)C)C2O)C(CC=O)CC(C)C(=O)C=CC(C)=CC1CN(C)Cc1ccccc1 (stereo not shown) [MKT-3002]	0.1 (≈ 0.149 µM)	0.2 µg/mL (≈ 0.299 µM)	0.1 (≈ 0.149 µM)	50 (≈ 74.7 µM)	<0.025	0.1 (≈ 0.149 µM)	<0.1	3.13 µg/mL (≈ 4.68 µM)	3.13 µg/mL (≈ 4.68 µM)	0.1 (≈ 0.149 µM)	0.1 (≈ 0.149 µM)	high anti-PRSP activity	MIC [1, 15]: 0.1 µg/mL (≈ 0.149 µM); MIC [2, 17]: 0.2 µg/mL (≈ 0.299 µM); MIC [3, 19]: 0.1 µg/mL (≈ 0.149 µM); MIC [4, 21]: 50 µg/mL (≈ 74.7 µM); MIC ([5]; Streptococcus pneumoniae IMC B-1232, PRSP): <0.025 µg/mL; MIC ([6]; Streptococcus pneumoniae IMC B-1233, PRSP): 0.1 µg/mL (≈ 0.149 µM); MIC [7, 25]: <0.1 µg/mL; MIC [8, 27]: 3.13 µg/mL (≈ 4.68 µM); MIC [9, 29]: 3.13 µg/mL (≈ 4.68 µM); MIC ([10]; Streptococcus pneumoniae IMC B-0921, PSSP): 0.1 µg/mL (≈ 0.149 µM); MIC ([11]; Streptococcus pneumoniae IMC B-1229, PSSP): 0.1 µg/mL (≈ 0.149 µM)
CCC1OC(=O)CCC(C)C(OC2OC(C)CC(N(C)C)C2O)C(CC=O)CC(C)C(=O)C=CC(C)=CC1COC(C)=O (stereo not shown) [MKT-2002]	0.1 (≈ 0.165 µM)	0.05 µg/mL (≈ 0.0823 µM)	0.1 (≈ 0.165 µM)	0.39 (≈ 0.642 µM)	0.05 (≈ 0.0823 µM)	0.05 (≈ 0.0823 µM)	0.1 (≈ 0.165 µM)	25 µg/mL (≈ 41.1 µM)	12.5 µg/mL (≈ 20.6 µM)	0.1 (≈ 0.165 µM)	0.1 (≈ 0.165 µM)	high anti-PRSP activity	
C=CCOCC1C=C(C)C=CC(=O)C(C)CC(CC=O)C(OC2OC(C)CC(N(C)C)C2O)C(C)CCC(=O)OC1CC (stereo not shown) [MKT-3701]	0.1 (≈ 0.165 µM)	0.2 µg/mL (≈ 0.33 µM)	0.1 (≈ 0.165 µM)	3.13 (≈ 5.17 µM)	0.05 (≈ 0.0825 µM)	0.05 (≈ 0.0825 µM)	0.1 (≈ 0.165 µM)	12.5 µg/mL (≈ 20.6 µM)	12.5 µg/mL (≈ 20.6 µM)	0.05 (≈ 0.0825 µM)	0.05 (≈ 0.0825 µM)	high anti-PRSP activity	
CCC1OC(=O)CCC(C)C(OC2OC(C)CC(N(C)C)C2O)C(CC=O)CC(C)C(=O)C=CC(C)=CC1CSc1ncccn1 (stereo not shown) [MKT-3802]	<0.025	<0.025 µg/mL	0.05 (≈ 0.0758 µM)	0.39 (≈ 0.591 µM)	<0.025	<0.025	0.025 (≈ 0.0379 µM)	12.5 µg/mL (≈ 18.9 µM)	12.5 µg/mL (≈ 18.9 µM)	0.05 (≈ 0.0758 µM)	0.05 (≈ 0.0758 µM)	high anti-PRSP activity	
CC[C@H]1OC(=O)CC[C@H](C)[C@@H](OC2OC(C)CC(N(C)C)C2O)[C@@H](CC=O)C[C@@H](C)C(=O)/C=C/C(C)=C/[C@@H]1COCOCc1ccccc1 (stereo partly shown) [MKT-3703]												high anti-PRSP activity	MIC ([1]; Streptococcus pneumoniae, PRSP clinical isolate IMC B-0919, read-out: MIC): < 0.025 µg/mL; MIC ([2]; Streptococcus pneumoniae, PRSP clinical isolate IMC B-0920, read-out: MIC): 0.025 µg/mL (≈ 0.0364 µM); MIC ([3]; Streptococcus pneumoniae, PRSP clinical isolate IMC B-0922, read-out: MIC): < 0.025 µg/mL; MIC ([4]; Streptococcus pneumoniae, PRSP clinical isolate IMC B-1231, read-out: MIC): 6.25 µg/mL (≈ 9.11 µM); MIC ([5]; Streptococcus pneumoniae, PRSP clinical isolate IMC B-1232, read-out: MIC): < 0.025 µg/mL; MIC ([6]; Streptococcus pneumoniae, PRSP clinical isolate IMC B-1233, read-out: MIC): < 0.025 µg/mL; MIC ([7]; Streptococcus pneumoniae, PRSP clinical isolate IMC B-1234, read-out: MIC): < 0.025 µg/mL; MIC ([8]; Streptococcus pneumoniae, PRSP clinical isolate IMC B-1235, read-out: MIC): 6.25 µg/mL (≈ 9.11 µM); MIC ([9]; Streptococcus pneumoniae, PRSP clinical isolate IMC B-1236, read-out: MIC): 12.5 µg/mL (≈ 18.2 µM); MIC ([10]; Streptococcus pneumoniae, PSSP clinical isolate IMC B-0921, read-out: MIC): < 0.025 µg/mL; MIC ([11]; Streptococcus pneumoniae, PSSP clinical isolate IMC B-1229, read-out: MIC): 0.1 µg/mL (≈ 0.146 µM)
CC[C@H]1OC(=O)CC[C@H](C)[C@@H](O[C@@H]2O[C@H](C)C[C@H](N(C)C)[C@H]2O)[C@@H](CC=O)C[C@@H](C)C(=O)/C=C/C(C)=C/[C@@H]1CO [DDMT, 3,4′-dideoxymycaminosyltylonolide, reference compound]		0.2 µg/mL and 0.39 µg/mL and 0.20 µg/mL						>50 µg/mL and 50 µg/mL and 25 µg/mL	>50 µg/mL and 50 µg/mL and 25 µg/mL				MIC [1, 15]: 0.39 µg/mL and 0.20 µg/mL; MIC [2, 17]: 0.39 µg/mL (≈ 0.689 µM); MIC [3, 19]: 0.39 µg/mL and 0.20 µg/mL; MIC [4, 21]: >50 µg/mL and 50 µg/mL; MIC [7, 25]: 0.20 µg/mL and 0.39 µg/mL and 0.2 µg/mL; MIC [8, 27]: >50 µg/mL and 50 µg/mL; MIC [9, 29]: 50 µg/mL and >50 µg/mL; antimicrobial effect [13]: excellent antimicrobial effect
CCC1OC(=O)CCC(C)C(OC2OC(C)CC(N(C)C)C2O)C(CC=O)CC(C)C(=O)C=CC(C)=CC1CNC(=O)c1ccccc1 (stereo not shown) [MKT-3202]	0.2 (≈ 0.299 µM)	0.2 µg/mL (≈ 0.299 µM)	<0.025	0.05 (≈ 0.0748 µM)	0.1 (≈ 0.15 µM)	<0.025	<0.025	0.1 µg/mL (≈ 0.15 µM)	6.25 µg/mL (≈ 9.34 µM)	<0.025	<0.025	high anti-PRSP activity	
